Experimental data taken from patent US20220372014A1, “NEUROPROTECTIVE COMPOUNDS AND METHODS OF USE THEREOF” (The Johns Hopkins University, priority 2019, published 2022).
Entries after “also recorded” stand apart in the source; their conditions may differ.

Legend:
MIF = molecular target: T1, MIF (Homo sapiens, UniProt P14174); assay: Nuclease assay of Example 3 (MIF inhibitory activity, Table 4); assay type: biochemical; details: nuclease assay of Example 3
T1 sequence (P14174 1-115): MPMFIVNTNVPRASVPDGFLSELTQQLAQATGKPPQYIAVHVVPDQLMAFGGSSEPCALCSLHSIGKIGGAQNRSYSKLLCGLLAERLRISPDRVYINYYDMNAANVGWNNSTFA
In short: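 Human genomic DNA (200 ng), pcDNA (200 ng) or PS^30-type substrates (1 μM) were incubated with MIF (0.25-8 μM final) in 10 mM Tris-HCl pH 7.0, 10 mM MgCl2, 1 mM DTT at 37 °C for 1 h (pcDNA, small substrates) or 4 h (genomic DNA). Cleavage was assessed by agarose or PAGE electrophoresis with EtBr staining and chemiluminescent detection of biotin-labelled DNA.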

[1] = system: HeLa cells or neuronal cells; assay: Cell death assay of Example 3 (MNNG, alamarBlue; protection against parthanatos, Table 4); assay type: cell-based; details: 1 μM test compound, MNNG-induced cell death, alamarBlue
In short: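 HeLa or neuronal cells (1×10^4/well) were pretreated 1 h at 37° C with 1 μM compound, exposed to MNNG for 15 min, washed, then re-incubated 18 h with 1 μM compound. Viability was read by alamarBlue fluorescence (ex 560/em 590 nm). Cell death was expressed relative to control wells.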

primary cortical neurons = assay: α-syn PFF-induced cell death in mouse primary cortical neurons (Hoechst and PI staining); assay type: cell-based; details: for toxicity when applied to primary cortical neurons: FIG. 12G; for α-syn PFF-induced cell death in mouse cortical neurons: pre-treated before α-syn PFF, Hoechst/PI
Method: Cell culture, transfection, primary neuronal culture and treatment. SH-SY5Y cells (ATCC) were cultured in DMEM containing 10% fetal bovine serum and penicillin/streptomycin at 37° C. under 5% C02. The cells were transfected using PolyFect reagent (Qiagen). Parthanatos was induced by the treatment of 50 μM MNNG for 15 min in SH-SY5Y cells. ABT-888 or PAAN/MIF inhibitors were pretreated with indicated concentration 1 h before MNNG treatment and cell death were assessed after 24 h. Primary cortical neurons from WT, PAAN/MIF KO, E22Q KI or P1G KI embryos were prepared as previously described See Kam et al. (2018) Science 362:eaat8407. Briefly, the cortex was dissected and cultured at embryonic day 16 in neurobasal media supplemented with B-27, 0.5 mM L-glutamine, penicillin and streptomycin (Invitrogen). Primary neurons were infected with AAV2-control, AAV2-PAAN/MIF WT, AAV2-PAAN/MIF E22Q, AAV2-PAAN/MIF E22A or AAV2-MIF P1G (ViGene Biosciences) at days in vitro (DIV) 4-5. ABT-888 or PAAN/MIF inhibitors were applied to neurons 1 h before α-syn PFF treatment. The neuron growth medium was replaced with fresh medium alone or including inhibitors every 3-4 days. α-syn PFF was added at DIV 7 and further incubated for indicated times followed by the cell death assay or biochemical experiments.
Cell death and viability assessment. Primary cultured cortical neurons were treated with 5 μg/ml of α-syn PFF for 14 days and cell death was determined by staining of all nuclei with 7 μM Hoechst 33342 and dead cell nuclei with 2 μM propidium iodide (PI) (Invitrogen). The numbers of total and dead cells were counted with the Axiovision 4.6 software (Carl Zeiss). Cell viability was determined by fluorescence at an excitation wavelength 570 nm and an emission wavelength 585 nm using Alamar Blue (Invitrogen).

| Structure (SMILES) | (%) inhibition of MIF nuclease activity (MIF) [%] | (%) inhibition of cell death [1] [%] | toxicity when applied to primary cortical neurons (primary cortical neurons) | (%) inhibition of cell death ([1]; 1 µM) [%] | α-syn PFF-induced cell death in mouse cortical neurons (primary cortical neurons) |
| --- | --- | --- | --- | --- | --- |
| COc1ccc(CC[C@H]2OC(=O)[C@@H]3CCCCN3C(=O)C(=O)C(C)(C)COC(=O)C=CCCN(C)C(=O)CNC(=O)[C@H](C(C)C)N(C)C(=O)[C@@H](Cc3ccccc3)NC(=O)[C@H](CC(C)C)N(C)C(=O)CCC(=O)Nc3cccc2c3)cc1OC [compound 76] | 73.5 | 79.2 | some toxicity | – | – |
| COc1ccc(CC[C@H]2OC(=O)[C@@H]3CCCCN3C(=O)C(=O)C(C)(C)COC(=O)C=CCCN(C)C(=O)[C@@H]3CCCN3C(=O)[C@H](COC(C)(C)C)N(C)C(=O)C(c3ccccc3)NC(=O)[C@H](C)N(C)C(=O)COc3cccc2c3)cc1OC (stereo partly drawn) [compound 56] | 70.8 | – | – | 81.5 | attenuated; also recorded: protected |
| COc1ccc(CC[C@H]2OC(=O)[C@@H]3CCCCN3C(=O)C(=O)C(C)(C)COC(=O)C=CCCN(C)C(=O)[C@@H]3CCCN3C(=O)[C@H](COC(C)(C)C)N(C)C(=O)C(c3ccccc3)NC(=O)CN(C)C(=O)COc3cccc2c3)cc1OC (stereo partly drawn) [compound 41] | 82.0 | – | some toxicity | 80.6 | attenuated |
| COc1ccc(CC[C@H]2OC(=O)[C@@H]3CCCCN3C(=O)C(=O)C(C)(C)COC(=O)C=CCCN(C)C(=O)[C@@H]3CCCN3C(=O)[C@H](COC(C)(C)C)N(C)C(=O)C(c3ccccc3)NC(=O)[C@H](C)N(C)C(=O)COc3cc(F)cc2c3)cc1OC (mixture of isomers) [compound 121] | 71.2 | 90.1 | – | – | protected |
| COc1ccc(CC[C@H]2OC(=O)[C@@H]3CCCCN3C(=O)C(=O)C(C)(C)COC(=O)C=CCCN(C)C(=O)[C@@H]3CCCN3C(=O)[C@H](CO)N(C)C(=O)C(c3ccccc3)NC(=O)[C@H](C)N(C)C(=O)COc3cccc2c3)cc1OC (stereo partly drawn) [compound 97] | −5.3 | 41.4 | – | – | – |
| COc1ccc(CC[C@H]2OC(=O)[C@@H]3CCCCN3C(=O)C(=O)C(C)(C)COC(=O)C=CCCN(C)C(=O)[C@H](C)NC(=O)[C@H](C(C)C)N(C)C(=O)[C@@H](Cc3ccccc3)NC(=O)[C@H](CC(C)C)N(C)C(=O)CCC(=O)Nc3cccc2c3)cc1OC [compound 77] | 75.5 | 77.9 | – | – | attenuated |
